The test concerns the target T1, trehalase (Sigma No. T 8778) (Sus scrofa, UniProt I3LIR5).
T1 construct: purchased Sigma T 8778
T1 sequence (I3LIR5 24-583): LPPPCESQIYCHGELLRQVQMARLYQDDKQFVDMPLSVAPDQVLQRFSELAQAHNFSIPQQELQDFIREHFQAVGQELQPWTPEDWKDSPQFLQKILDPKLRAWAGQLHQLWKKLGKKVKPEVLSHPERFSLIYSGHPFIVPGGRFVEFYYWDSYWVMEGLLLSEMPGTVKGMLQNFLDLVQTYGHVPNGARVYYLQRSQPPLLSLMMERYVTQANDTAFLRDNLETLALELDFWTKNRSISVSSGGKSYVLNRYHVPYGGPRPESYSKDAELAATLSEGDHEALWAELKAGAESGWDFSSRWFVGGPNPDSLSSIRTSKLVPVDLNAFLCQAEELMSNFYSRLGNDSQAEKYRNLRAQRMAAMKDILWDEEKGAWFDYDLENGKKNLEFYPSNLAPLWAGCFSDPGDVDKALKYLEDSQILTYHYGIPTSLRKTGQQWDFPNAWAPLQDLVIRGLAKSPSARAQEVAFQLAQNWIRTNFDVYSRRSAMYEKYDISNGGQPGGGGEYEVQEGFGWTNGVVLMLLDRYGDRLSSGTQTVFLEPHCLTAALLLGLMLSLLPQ
Kind of test: Trehalase assay (colorimetric determination of D-glucose liberated from trehalose). Type of test: biochemical. The procedure: The trehalase assay is based on the colorimetric determination of D-glucose, which is liberated from trehalose by the action of trehalase.
Before the assay was started, trehalase (Sigma No. T 8778) was diluted with 20 mM phosphate buffer pH 6.5 in a ratio of 1 1000. Trehalose was dissolved in a concentration of 0.lM in 0.lM 2-(n-morpholino)ethanesulfonic acid.
At the beginning of the assay, 100 μl each of H2 O, trehalose and trehalase were combined and the mixture was incubated at 37° C. for 30 minutes. The reaction was stopped by heating the batch to 100° C. The control batch was stopped immediately (0 minutes) by boiling. Where appropriate, salbostatin was added to the reaction batches in various concentrations in place of water.
The glucose which was liberated from the trehalose was determined colorimetrically. To this end, the glucose was reacted by glucose oxidase and the H2 O2 which formed was used for oxidizing o-dianisidine.The oxidized odianisidine was determined using a photometer. All the abovementioned reagents for glucose determination came from the glucose kit manufactured by Sigma (Sigma Chemie GmbH, Deisenhofen, Germany; No. 510-DA), and the assay was carried out in accordance with the enclosed protocol.

Consider one molecule from patent US5091524A, “Glycosidase inhibitor salbostatin, process for its preparation, and its use” (Hoechst Aktiengesellschaft, priority 1988, dated 1992).

`OCC1=C[C@H](N[C@H]2CO[C@H](CO)[C@@H](O)[C@@H]2O)[C@H](O)[C@@H](O)[C@@H]1O` [salbostatin]: for the setting “competitive with regard to trehalose, read-out: inhibitor constant Ki”, the inhibition constant (Ki) stood at 180 nM. In addition, the IC50 (substrate trehalose, 37° C., 30 minutes, read-out: salbostatin concentration showing an enzyme inhibition of 50%) was in the range of 10 to 100 nM. Under “with regard to trehalose”, the “type of inhibition (enzyme kinetics)” value is reported as “competitive trehalase inhibitor”.

For orientation: Ki means a measure of affinity in units of concentration, obtained from inhibition or displacement.
